Measurements taken from patent US20100129465A1, “Methods and Compositions Related to Acne Treatment” (priority 2008, published 2010).

Tested on: skin and eyes
Settings: aqueous solution, pH=3.0

sting or burning when applied to freshly shaven skin: stings or burns
Structure (SMILES): O=C(O)CO [glycolic acid]
